In PMC6750642, “Direct Measurement of Amorphous Solubility” (Analytical Chemistry, 2019):
Like-named read-outs stand apart in the source and are kept apart here. Marks after values point to notes of the source that are not given here.

Experiments:
[1] = cited from earlier work
[2] = Image-based single particle analysis (SPA) solubility measurement of amorphous and crystalline samples; format: physicochemical; details: for DS (degree of supersaturation, amorphous vs crystalline solubility), SPA method: Milli-Q ultrapure water, type 1
Procedure: The constant flow continuously displaces drug molecules from the surface of the dissolving particle. […] (Figure 1). The solubilities of all five crystalline and amorphous samples were measured in triplicate in Milli-Q water. […] The obtained solubility values, therefore, were the average of three independent measurements, where at least ten particles per single measurement were analyzed. Additionally, amorphous IND was also measured in HCl buffer pH 2.0 in the presence of 0.1% (w/v) polyvinylpyrolidone (PVP). The additional measurement using PVP was performed in order to assess the need for a crystallization inhibitor in the SPA experiments. The solubilities of the amorphous and crystalline samples were measured in Milli-Q water and USP buffers as soon as the solvent came in contact with particles.

[3] = Theoretical estimation of DS by the Hoffman method from DSC and DVS data; format: physicochemical
Procedure: Samples of 5–10 mg were tightly packed into standard aluminum crucibles (40 μL) with pierced lids. The samples were equilibrated at 25 °C for 3 min and then linearly heated with a heating rate of 10 °C/min to 20 °C above their respective melting points. Measurements of both amorphous and crystalline samples were recorded in triplicate, and thermal events were analyzed using the STARe software (Mettler-Toledo, Greifensee, Switzerland). Temperatures and melting enthalpies were used to estimate the free energy difference between the amorphous and crystalline forms.
The water sorption isotherms of the five amorphous drug samples were determined using the method previously described by Murdande et al.[10] A VTI-SA+ Vapor Sorption Analyzer (TA Instruments, New Castle, DE, USA) was used to measure the moisture sorption profiles of the amorphous samples. Approximately 10 mg of amorphous sample was placed into a glass holder. To reduce the possibility of sample crystallization during the measurement, no drying step was used. The DVS measurements were performed at 25 °C from 0 to 95% relative humidity (in 10% steps up to 90%). The equilibrium criterion was 0.001% weight change in 5 min with a maximum step time of 150 min. The instrument is calibrated once a month.
According to Hoffman, the difference in Gibbs free energy (ΔG) between the crystalline and the amorphous form can be estimated using eq 4.[15]Hm, Tm, and T are the melting enthalpy of the crystalline form, the melting temperature of the crystalline form, and the experimental temperature measured in Kelvin, respectively. Using the ΔG estimation, the maximum DS due to amorphization was predicted according to Hancock and Parks[9] and corrected for the impact of water on the amorphous solute as proposed by Murdande et al. through eq 5.[10]R and exp(−I(a2)) are the gas constant and a correction factor obtained from DVS measurements, as shown by Murdande et al.[10]

[4] = cited from earlier work; remark: listed apart in the source
[5] = Dynamic water sorption (DVS) of amorphous samples; format: physicochemical; details: above RH 80%, 25 °C

| DS (degree of supersaturation, amorphous vs crystalline solubility), SPA method [2] | DS, theoretical estimation (Hoffman method with correction for the effect of water on the amorphous solute) [3] | sample mass loss in DVS experiment (crystallization, water expelled) [5] | DS, theoretical estimation based solely on ΔG, without the correction for the adsorbed water [3] | effect of PVP in the dissolution medium on the solubility of the amorphous form, SPA method ([2]; USP HCl buffer pH 2.0 with vs without PVP 0.1% (w/v)) | Compound | DS, literature, dissolution in water ([1]; deionized water) | DS, literature, theoretical estimation ([4]; approach by Almeida et al.) | DS, literature, theoretical estimation [4] | DS, literature, dissolution in water ([1]; distilled water) | DS range reported in the literature ([4]; temperature range of 34–75 °C) |
| --- | --- | --- | --- | --- | --- | --- | --- | --- | --- | --- |
| 29.8 | 34.6 | – | – | – | COC1=CC(=O)C[C@@H](C)[C@]12Oc1c(Cl)c(OC)cc(OC)c1C2=O [GRI, griseofulvin] | 1.4 ^d^, ^i | 30.9 | 29.1 | – | – |
| – | 23.9 | – | – | – | C#C[C@]1(O)CC[C@H]2[C@@H]3CCC4=Cc5oncc5C[C@]4(C)[C@H]3CC[C@@]21C [DAN, Danazol] | 3.0 ^d^, ^i | – | 26.5 ^i | – | – |
| 18.9 | 21.7 | – | – | – | Cc1ccc(-c2cc(C(F)(F)F)nn2-c2ccc(S(N)(=O)=O)cc2)cc1 [CEL, Celecoxib] | – | – | – | 3.1 ^c^, ^h | 7–21 |
| 15.3 | 6.6 | 0.39% | 15.2 | – | OCCN(CCO)c1nc(N2CCCCC2)c2nc(N(CCO)CCO)nc(N3CCCCC3)c2n1 [DIP, Dipyridamole] | – | – | 10 ^k | – | – |
| 20.4 | 18.7 | – | – | did not affect | COc1ccc2c(c1)c(CC(=O)O)c(C)n2C(=O)c1ccc(Cl)cc1 [IND, indomethacin] | 4.9 ^d^, ^i | – | 20.8 ^i | – | – |
